Assay type in all cases: cell-based
In experiment [1] the test system is MYC protein. In words: Western blot of MYC protein in human cancer cell lines. The settings on record: about 1 μM, 2-day incubation, e.g., A549 or HepG2, GAPDH loading control, vs DMSO. As to the method:
The level of reduction of MYC protein following treatment with test compounds is also assessed by Western blot according to the following protocol. The human cancer cell lines (e.g., A549 or HepG2) are seeded at 20,000 cells per well in a 96-well plate. After 1 day, the cells are treated with test compounds at a final concentration of about 1 μM. After a 2-day incubation period, the supernatant is removed from the wells and RIPA buffer is added to create cell lysates. The lysates are analyzed by Western blot and probed with a MYC-specific antibody (e.g., Proteintech 10828-1-AP) together with a GAPDH-specific antibody (e.g., Proteintech 10494-1-AP) to serve as loading control. The intensities of Western blot bands are quantified by FIJI (Image J). The relative expression value of MYC following treatment with a test compound is calculated by dividing the intensity of the MYC band of the sample with the intensity of its own GAPDH band. The value so obtained is presented as a percentage of that of the no-compound, solvent only (DMSO)-treated sample. A lower percentage of MYC protein in a sample with respect to the DMSO-treated sample indicates greater percentage reduction in MYC protein level due to the test compound, and vice versa.

For experiment [2], the system named is HepG2. In words: CCK-8 cell viability assay, HepG2. The settings on record: Homo sapiens; CCK-8, HepG2, 2-day or 3-day incubation, cytotoxic effect.
Description: The effect of test compounds on cell viability is determined using the CCK-8 assay kit (Dojindo CK04-1000) according to the following protocol. The human cancer cell lines (e.g., A549, HepG2, JeKo-1, MDA-MB-231, etc.) and non-cancer human cell lines (e.g., HEK-293, HaCaT, etc.), are seeded at 20,000 cells per well in a 96-well plate. After 1 day, the cells are treated with test compounds at various final concentrations (e.g., 10 nM, 31.6 nM, 100 nM, 316 nM, 1 μM, 3.16 μM, 10 μM, 20 μM, etc.). After a 2-day or 3-day incubation period, 10 μL of CCK-8 solution, which contains the WST-8 dye, is added to each well according to the kit manufacturer's protocol. After incubation for 1-4 hours, the absorbance at 450 nm is measured using a microplate reader. The absorbance at 450 nm measures the amount of WST-8 that is reduced to WST-8 formazan by cellular dehydrogenases, which is directly proportional to the number of living cells. The cytotoxic effect of test compounds at different concentrations is calculated by subtracting from 1 the ratio of absorbance of the compound-treated sample at 450 nm to that of the no-compound, solvent only (DMSO)-treated sample. […] The IC50 values for the cytotoxic effect of each test compound in A549, HepG2, JeKo-1, and/or MDA-MB-231 cells are determined by plotting a dose-response curve to calculate the concentration of test compound that produces half of the maximum cytotoxic effect.
Experiment [3] concerns MYC protein. The experiment is described as follows: MYC HTRF assay, MYC protein level in human cell lines. The settings on record: about 20 μM, 2-day incubation, human cell lines (e.g., A549, HepG2), vs DMSO-treated sample. How it is done:
The MYC homogenous time-resolved fluorescence (HTRF) assay kit (CisBio/Perkin Elmer 63ADK053PEG) is used to quantify the level of MYC protein in human cell lines (e.g., A549, HepG2) following treatment with test compounds, according to the following protocol. Human cells cultured in DMEM-10% FBS media are seeded at 20,000 cells per well in a 96-well plate. After 1 day, the cells are treated with test compounds at a final concentration of about 20 μM. After a 2-day incubation period, the supernatant is removed from the wells and the HTRF assay is carried out according to the kit manufacturer's protocol. In brief, lysis buffer #4 is added to create cell lysates. 10 μL of cell lysate is added to 10 μL of premixed antibody solution (anti-human My c-Eu cryptate antibody and anti-human Myc-d2 antibody) prepared in detection buffer #3 in a 384-well low-volume white-walled plated. After 3 h of incubation, fluorescence readings are taken at the emission wavelengths of donor and acceptor fluorophores (620 nm and 665 nm respectively) using a HTRF-compatible plate reader. The ratio of acceptor and donor fluorescence emission signals for each sample is calculated by dividing the fluorescence signal at 665 nm by the signal at 620 nm, and further normalized by dividing with the concentration of total protein in that sample as determined by the BCA assay. The values so obtained are presented as a percentage of that of the no-compound, solvent only (DMSO)-treated samples. A lower percentage of MYC protein in a sample with respect to the DMSO-treated sample indicates greater percentage reduction in MYC protein level due to the test compound, and vice versa.
(In general: Time-resolved FRET reads energy transfer from a long-lived donor to a nearby acceptor.)

Another experiment relates to MYC RNA. The experiment is described as follows: RT-qPCR of MYC RNA in human cancer cell lines. As to conditions: 24 h, about 1 μM, 1-day incubation, e.g., A549, HepG2, beta-actin normalized, vs DMSO, read-out: % reduction of MYC RNA. How it is done:
The level of reduction of MYC RNA following treatment with test compounds is assessed using RT-qPCR according to the following protocol. The human cancer cell lines (e.g., A549, HepG2) are seeded at 20,000 cells per well in a 96-well plate. After 1 day, the cells are treated with test compounds at a final concentration of about 1 μM. After a 1-day incubation period, the supernatant is removed from the wells and lysis solution from the Cells-to-CT 1-Step Power SYBR Green Kit (Invitrogen A25599) is added to create cell lysates, according to the kit manufacturer's protocol. The kit manufacturer's protocol is then followed to perform RT-qPCR for each sample using a pair of MYC-specific primers (e.g., SEQ ID NO: 4 and SEQ ID NO: 5) to detect MYC RNA, as well as a pair of beta-actin-specific primers (e.g., SEQ ID NO: 6 and SEQ ID NO: 7) to detect beta-actin RNA, which serves as a loading control. The relative expression levels of MYC and beta-actin RNAs are calculated using a standard curve generated from a dilution series of untreated cell lysates. The normalized level of MYC RNA following treatment with a test compound is calculated by dividing the relative expression level of MYC in the sample by the relative expression level of beta actin in the same sample. The value so obtained is presented as a percentage of that of the no-compound, solvent only (DMSO)-treated sample. A lower percentage of MYC RNA in a sample with respect to the DMSO-treated sample indicates greater percentage reduction in MYC RNA levels due to the test compound, and vice versa.
In general terms: In qPCR the cycle at which signal appears reflects the starting amount.

In a further experiment the test system is JeKo-1. In words: CCK-8 cell viability assay, JeKo-1. The settings on record: Homo sapiens; CCK-8, JeKo-1, 2-day or 3-day incubation, cytotoxic effect. How it is done: (§1) The effect of test compounds on cell viability is determined using the CCK-8 assay kit (Dojindo CK04-1000) according to the following protocol. The human cancer cell lines (e.g., A549, HepG2, JeKo-1, MDA-MB-231, etc.) and non-cancer human cell lines (e.g., HEK-293, HaCaT, etc.), are seeded at 20,000 cells per well in a 96-well plate. After 1 day, the cells are treated with test compounds at various final concentrations (e.g., 10 nM, 31.6 nM, 100 nM, 316 nM, 1 μM, 3.16 μM, 10 μM, 20 μM, etc.). After a 2-day or 3-day incubation period, 10 μL of CCK-8 solution, which contains the WST-8 dye, is added to each well according to the kit manufacturer's protocol. After incubation for 1-4 hours, the absorbance at 450 nm is measured using a microplate reader. The absorbance at 450 nm measures the amount of WST-8 that is reduced to WST-8 formazan by cellular dehydrogenases, which is directly proportional to the number of living cells. The cytotoxic effect of test compounds at different concentrations is calculated by subtracting from 1 the ratio of absorbance of the compound-treated sample at 450 nm to that of the no-compound, solvent only (DMSO)-treated sample. A higher number indicates a greater cytotoxic effect of the test compound on cells (corresponding to a greater reduction in cellular dehydrogenase activity), and vice versa. The IC50 values for the cytotoxic effect of each test compound in A549, HepG2, JeKo-1, and/or MDA-MB-231 cells are determined by plotting a dose-response curve to calculate the concentration of test compound that produces half of the maximum cytotoxic effect. The cytotoxic effect and IC50 of test compounds are also measured in a non-cancer human cell line (e.g., HEK-293, and/or HaCaT) as a proxy for healthy cells to determine the therapeutic window of the test compounds (i.e., the concentration range at which the test compounds selectively kill cancer cells but not healthy cells). The therapeutic index of a test compound is defined herein as its IC50 in HEK-293 cells divided by its IC50 in HepG2 cells.
A general note: Tetrazolium dyes change colour on reduction, which living cells bring about.

The next experiment has as its system MDA-MB-231. The experiment is described as follows: CCK-8 cell viability assay, MDA-MB-231. As to conditions: Homo sapiens; CCK-8, MDA-MB-231, 2-day or 3-day incubation, cytotoxic effect. As to the method: as §1
The subject of experiment [4] is HEK-293. In words: ApoTox-Glo Triplex assay (live-dead ratio), HEK-293. The settings on record: Homo sapiens, HEK293, 48 h, HEK-293, 2-day incubation.
Description: The effects of test compounds on cell viability and apoptosis are determined using the ApoTox-Glo Triplex assay kit (Promega G6320) according to the following protocol. The human cancer cell line (e.g., HepG2) and a non-cancer human cell line (e.g., HEK-293), are seeded at 20,000 cells per well in a 96-well plate. After 1 day, the cells are treated with test compounds at various final concentrations (e.g., 10 nM, 31.6 nM, 100 nM, 316 nM, 1 μM, 3.16 μM, 10 μM, 20 μM, etc.). After a 2-day incubation period, the ApoTox-Glo Triplex assay is performed according to the kit manufacturer's protocol. […] After incubation for 30 minutes at 37° C., the fluorescence signal is measured at two wavelength sets (400Ex/505Em) and (485Ex/520Em) to assess live-cell protease activity and dead-cell protease activity respectively. […] After incubation for 30 minutes at room temperature, the luminescent signal is measured using a microplate reader. […]
The cytotoxic effect of test compounds according to the ApoTox-Glo Triplex assay is calculated as follows. The live-dead ratio is calculated by dividing the fluorescence signal for live-cell protease activity with the fluorescence signal for dead-cell protease activity. […]
In experiment [5] the test system is HEK-293. In words: CellTiter-Glo 2.0 cell viability assay, HEK-293. The settings on record: Homo sapiens, HEK293, 48 h; CellTiter-Glo 2.0, HEK-293, 2-day incubation.
Description: (§2) The effect of test compounds on cell viability is also determined using the CellTiter-Glo 2.0 assay kit (Promega G9241) according to the following protocol. The human cancer cell line (e.g., HepG2) and a non-cancer human cell line (e.g., HEK-293), are seeded at 20,000 cells per well in a 96-well plate. After 1 day, the cells are treated with test compounds at various concentrations (e.g., 10 nM, 31.6 nM, 100 nM, 316 nM, 1 μM, 3.16 μM, 10 μM, 20 μM, etc.). After a 2-day incubation period, the CellTiter-Glo 2.0 assay is performed according to the kit manufacturer's protocol. […] The contents are mixed for 2 minutes on an orbital shaker to induce cell lysis, and incubated for 10 minutes at room temperature, following which the luminescent signal is measured using a microplate reader. […] The cytotoxic effect of test compounds at different concentrations is calculated by subtracting from 1 the ratio of the luminescence signal of the compound-treated sample to that of the no-compound, solvent only (DMSO)-treated sample. […] The IC50 values for the cytotoxic effect of each test compound in HepG2 cells are determined by plotting a dose-response curve to calculate the concentration of test compound that produces half of the maximum cytotoxic effect. […]
Experiment [6] concerns HepG2. In words: CellTiter-Glo 2.0 cell viability assay, HepG2. The settings on record: Homo sapiens, 48 h; CellTiter-Glo 2.0, HepG2, 2-day incubation.
Description: as §2

For the compound `Cc1nc(N2CC(n3nc(-c4ccncc4)ccc3=O)C2)c2cnn(C)c2n1` [2-(1-(1,6-dimethyl-1H-pyrazolo[3,4-d]pyrimidin-4-yl)azetidin-3-yl)-6-(pyridin-4-yl)pyridazin-3(2H)-one], the “% reduction of MYC protein” value in the experiment on MYC protein [1] was found to be 19%.

By IC50 is commonly meant the point on the concentration scale where inhibition reaches its midpoint. Take `Cc1cncc(N2CCC(Cn3nc(-n4cncn4)ccc3=O)CC2)n1` [2-((1-(6-methylpyrazin-2-yl)piperidin-4-yl)methyl)-6-(1H-1,2,4-triazol-1-yl)pyridazin-3(2H)-one]: in the experiment with HepG2 [2], the 50% inhibitory concentration (IC50) stood at 11.2 µM.

As to `O=c1ccc(-n2cccn2)nn1CC1CCN(c2ncnc3cc(F)ccc23)CC1` [2-((1-(7-fluoroquinazolin-4-yl)piperidin-4-yl)methyl)-6-(1H-pyrazol-1-yl)pyridazin-3(2H)-one], the “% reduction of MYC protein” value with MYC protein [3] is reported as 74%. In the experiment with MYC RNA, the inhibition at 1 µM worked out at 12%.

Compound `O=c1ccc(-c2ccncc2)nn1CC1CN(c2ncnc3[nH]cnc23)C1` [2-((1-(9H-purin-6-yl)azetidin-3-yl)methyl)-6-(pyridin-4-yl)pyridazin-3(2H)-one] gave an IC50 in the experiment on HepG2 [2] of 6 µM.

With `Cc1nc(C)c(-c2ccc(=O)n(CC3CCN(c4ncnc5[nH]cnc45)CC3)n2)s1` [2-((1-(9H-purin-6-yl)piperidin-4-yl)methyl)-6-(2,4-dimethylthiazol-5-yl)pyridazin-3(2H)-one], in the experiment on MYC protein [3], the “% reduction of MYC protein” value is reported as 17%. For the same compound, the inhibition at 1 µM with MYC RNA came out at 1%.

In the case of `O=c1ccc(-n2cncn2)nn1CC1CCN(c2ccc3nnc(C(F)(F)F)n3n2)CC1` [6-(1H-1,2,4-triazol-1-yl)-2-((1-(3-(trifluoromethyl)-[1,2,4]triazolo[4,3-b]pyridazin-6-yl)piperidin-4-yl)methyl)pyridazin-3(2H)-one], the “% reduction of MYC protein” value in the experiment on MYC protein [1] worked out at 29%. Further, it took 5.7 µM to reach half-maximal inhibition in the experiment on HepG2 [2] (IC50). Besides, the inhibition at 1 µM with MYC RNA worked out at 20%.

Consider `O=c1ccc(-n2cccn2)nn1CC1CCN(c2ccc3nnc(C(F)(F)F)n3n2)CC1` [6-(1H-pyrazol-1-yl)-2-((1-(3-(trifluoromethyl)-[1,2,4]triazolo[4,3-b]pyridazin-6-yl)piperidin-4-yl)methyl)pyridazin-3(2H)-one], for which the “% reduction of MYC protein” value in the experiment with MYC protein [1] worked out at 33%. The same compound yielded a half-inhibitory concentration (IC50) in the experiment with HepG2 [2] of 18.5 µM. Besides, in the experiment with MYC RNA, the inhibition at 1 µM came to 19%.

As for `Cc1nc(C)c(-c2ccc(=O)n(CC3CCN(c4ncnc5ncccc45)CC3F)n2)s1` (stereo not drawn) [6-(2,4-dimethyl-1,3-thiazol-5-yl)-2-(3-fluoro-1-pyrido[2,3-d]pyrimidin-4-ylpiperidin-4-yl)methylpyridazin-3-one], the values for the 50% inhibitory concentration (IC50) with JeKo-1, in the experiment with HepG2 [2] and in the experiment with MDA-MB-231 were 0.3 µM, 0.5 µM and 1.1 µM, respectively.

For the compound `Cc1nc(N2CCC(Cn3nc(-c4sc(C)nc4C)ccc3=O)CC2)c2ccncc2n1` [6-(2,4-dimethylthiazol-5-yl)-2-((1-(2-methylpyrido[3,4-d]pyrimidin-4-yl)piperidin-4-yl)methyl)pyridazin-3(2H)-one], in the experiment with MYC protein [3], the “% reduction of MYC protein” value was 16%. For the same compound, in the experiment with MYC RNA, the inhibition at 1 µM was 5%.

Regarding `Cc1cc(N2CCC(Cn3nc(-c4sc(C)nc4C)ccc3=O)CC2)ncn1` [6-(2,4-dimethylthiazol-5-yl)-2-((1-(6-methylpyrimidin-4-yl)piperidin-4-yl)methyl)pyridazin-3(2H)-one], the “% reduction of MYC protein” value in the experiment with MYC protein [3] stood at 19%. The inhibition at 1 µM in the experiment on MYC RNA was 19%.

For `Cc1cc(C)n(-c2ccc(=O)n(C3CCN(c4nc5cccnc5n4C)CC3)n2)n1` [6-(3,5-dimethyl-1H-pyrazol-1-yl)-2-(1-(3-methyl-3H-imidazo[4,5-b]pyridin-2-yl)piperidin-4-yl)pyridazin-3(2H)-one], in the experiment with MYC protein [1], the “% reduction of MYC protein” value turned out to be 24%. Further, in the experiment on HepG2 [2], the IC50 turned out to be 5.3 µM.

As to `Cc1cc(C)n(-c2ccc(=O)n(CC3CN(c4ccc5nnc(C)n5n4)C3)n2)n1` [6-(3,5-dimethyl-1H-pyrazol-1-yl)-2-((1-(3-methyl-[1,2,4]triazolo[4,3-b]pyridazin-6-yl)azetidin-3-yl)methyl)pyridazin-3(2H)-one], the “% reduction of MYC protein” value in the experiment with MYC protein [1] stood at 48%. Besides, in the experiment on MYC RNA, the inhibition at 1 µM came out at 4%.

As to `CC(=O)O[C@H]1C(=O)[C@@]2(C)[C@H]([C@H](OC(=O)c3ccccc3)[C@]3(O)C[C@H](OC(=O)[C@H](O)[C@@H](NC(=O)c4ccccc4)c4ccccc4)C(C)=C1C3(C)C)[C@]1(OC(C)=O)CO[C@@H]1C[C@@H]2O` [paclitaxel, reference compound], the half-inhibitory concentration (IC50) stood at 6.9 µM in the experiment with HEK-293 [4], 27 µM with HEK-293 [5] and 7.5 µM with HepG2 [6].
